According to PMC6193938, “Characterization of a novel AICARFT inhibitor which potently elevates ZMP and has anti-tumor activity in murine models” (Scientific Reports, 2018):

Tests used:
[1] = system: MDA-MB-231met2; assay: In vitro proliferation assay (Alamar Blue); type: cell-based, human
Description: Cells lines were acquired from cell banks, see supplemental material, grown using the cell banks recommended culture conditions (Supplemental Table 3). In some experiments noted “low folate” the cells were washed and grown in folate free RPMI-1640 media (Gibco #27016-021) supplemented with 5 ml 1 M Hepes, 5 ml 100 mM Na pyruvate, 2.5 mg/ml glucose and 10% defined FBS (Hyclone #SH30070) per 500 mL media for 5–7 days to deplete intracellular folate levels prior to the start of the experiment. Where noted, cells were maintained in complete “high folate” RPMI-1640 media (ATCC #30-2001) with 10% defined FBS to contrast with the low folate conditions. […]
Cells were cultured using recommended culture conditions unless noted otherwise (Supplemental Table 3). Cells were plated, dosed with compound and incubated at 37 °C for approximately 2 doubling times as determined for each cell line. Cell Titer Glo (Promega) assay was used to measure proliferation according to manufacturer’s recommendations by measuring luminescence with Flexstation3 (Molecular Devices) with 500 ms integration time. […]
For a limited number of cell lines, compound dosing was performed under high or low folate conditions with cell viability being determined with Alamar Blue rather than an ATP dependent assay. […] The % inhibition for each sample was calculated and fit as described above.

[2] = molecular target: T1, BRK (Homo sapiens, UniProt Q13882); assay: CEREP protein kinase assay; type: biochemical
T1 construct: purchased CEREP Panlabs (Eurofins)
T1 sequence (Q13882 whole entry): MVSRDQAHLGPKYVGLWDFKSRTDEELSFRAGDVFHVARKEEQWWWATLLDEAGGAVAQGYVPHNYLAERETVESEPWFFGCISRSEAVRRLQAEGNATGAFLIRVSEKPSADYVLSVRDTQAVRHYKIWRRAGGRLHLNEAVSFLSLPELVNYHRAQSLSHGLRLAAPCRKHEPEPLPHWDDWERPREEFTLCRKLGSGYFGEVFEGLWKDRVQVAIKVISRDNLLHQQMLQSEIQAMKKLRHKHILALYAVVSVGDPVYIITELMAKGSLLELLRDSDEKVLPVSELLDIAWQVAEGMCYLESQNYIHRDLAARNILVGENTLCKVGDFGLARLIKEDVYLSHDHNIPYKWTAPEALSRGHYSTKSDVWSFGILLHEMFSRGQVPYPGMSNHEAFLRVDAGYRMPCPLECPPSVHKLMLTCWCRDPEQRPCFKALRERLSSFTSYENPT

[3] = molecular target: T2, CDK1 (Homo sapiens, UniProt P06493); assay: CEREP protein kinase assay; type: biochemical
T2 construct: purchased CEREP Panlabs (Eurofins)

[4] = molecular target: T3, EPHA5 (Homo sapiens, UniProt P54756); assay: CEREP protein kinase assay; type: biochemical
T3 construct: purchased CEREP Panlabs (Eurofins)

[5] = molecular target: T4, FLT1 (Homo sapiens, UniProt P17948); assay: CEREP protein kinase assay; type: biochemical
T4 construct: purchased CEREP Panlabs (Eurofins)

[6] = molecular target: T5, IGF1R (Homo sapiens, UniProt P08069); assay: CEREP protein kinase assay; type: biochemical
T5 construct: purchased CEREP Panlabs (Eurofins)
T5 sequence (P08069 31-1367): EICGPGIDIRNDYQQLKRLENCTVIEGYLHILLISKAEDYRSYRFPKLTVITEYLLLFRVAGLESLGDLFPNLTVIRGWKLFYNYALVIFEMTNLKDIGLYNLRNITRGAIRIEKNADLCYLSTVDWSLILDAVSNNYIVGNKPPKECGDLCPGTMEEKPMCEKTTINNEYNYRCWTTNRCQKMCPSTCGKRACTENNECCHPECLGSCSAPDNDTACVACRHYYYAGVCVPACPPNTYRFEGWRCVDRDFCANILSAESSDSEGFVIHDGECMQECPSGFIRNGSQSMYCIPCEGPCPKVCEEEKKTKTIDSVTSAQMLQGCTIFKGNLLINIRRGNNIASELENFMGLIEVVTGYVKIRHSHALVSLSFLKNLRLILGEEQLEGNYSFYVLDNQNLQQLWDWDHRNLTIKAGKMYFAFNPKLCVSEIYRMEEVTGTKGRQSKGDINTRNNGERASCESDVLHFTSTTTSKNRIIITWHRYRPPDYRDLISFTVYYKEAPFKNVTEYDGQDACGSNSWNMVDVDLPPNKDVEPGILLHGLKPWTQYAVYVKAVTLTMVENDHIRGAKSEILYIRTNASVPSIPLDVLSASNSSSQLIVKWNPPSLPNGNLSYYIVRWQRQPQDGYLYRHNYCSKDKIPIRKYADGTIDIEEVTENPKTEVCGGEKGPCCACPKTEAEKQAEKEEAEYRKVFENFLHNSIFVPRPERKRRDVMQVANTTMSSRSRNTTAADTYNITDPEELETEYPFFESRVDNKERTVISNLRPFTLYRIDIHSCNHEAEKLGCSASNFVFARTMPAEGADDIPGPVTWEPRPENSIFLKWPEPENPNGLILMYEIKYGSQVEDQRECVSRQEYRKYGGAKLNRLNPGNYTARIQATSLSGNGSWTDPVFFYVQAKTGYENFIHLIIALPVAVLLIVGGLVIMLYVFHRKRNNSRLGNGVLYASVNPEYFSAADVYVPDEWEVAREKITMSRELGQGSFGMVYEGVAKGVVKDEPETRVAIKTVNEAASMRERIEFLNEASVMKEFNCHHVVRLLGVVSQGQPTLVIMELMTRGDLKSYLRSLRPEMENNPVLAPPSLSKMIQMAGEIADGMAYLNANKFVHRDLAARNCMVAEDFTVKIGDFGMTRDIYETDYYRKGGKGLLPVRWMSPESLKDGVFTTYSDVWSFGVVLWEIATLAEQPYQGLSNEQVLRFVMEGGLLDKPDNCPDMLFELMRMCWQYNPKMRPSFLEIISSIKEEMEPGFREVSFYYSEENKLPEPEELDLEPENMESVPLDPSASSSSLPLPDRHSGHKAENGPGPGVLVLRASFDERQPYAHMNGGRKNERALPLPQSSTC

[7] = molecular target: T6, MET (Homo sapiens, UniProt P08581); assay: CEREP protein kinase assay; type: biochemical
T6 construct: purchased CEREP Panlabs (Eurofins)
T6 sequence (P08581 25-1390): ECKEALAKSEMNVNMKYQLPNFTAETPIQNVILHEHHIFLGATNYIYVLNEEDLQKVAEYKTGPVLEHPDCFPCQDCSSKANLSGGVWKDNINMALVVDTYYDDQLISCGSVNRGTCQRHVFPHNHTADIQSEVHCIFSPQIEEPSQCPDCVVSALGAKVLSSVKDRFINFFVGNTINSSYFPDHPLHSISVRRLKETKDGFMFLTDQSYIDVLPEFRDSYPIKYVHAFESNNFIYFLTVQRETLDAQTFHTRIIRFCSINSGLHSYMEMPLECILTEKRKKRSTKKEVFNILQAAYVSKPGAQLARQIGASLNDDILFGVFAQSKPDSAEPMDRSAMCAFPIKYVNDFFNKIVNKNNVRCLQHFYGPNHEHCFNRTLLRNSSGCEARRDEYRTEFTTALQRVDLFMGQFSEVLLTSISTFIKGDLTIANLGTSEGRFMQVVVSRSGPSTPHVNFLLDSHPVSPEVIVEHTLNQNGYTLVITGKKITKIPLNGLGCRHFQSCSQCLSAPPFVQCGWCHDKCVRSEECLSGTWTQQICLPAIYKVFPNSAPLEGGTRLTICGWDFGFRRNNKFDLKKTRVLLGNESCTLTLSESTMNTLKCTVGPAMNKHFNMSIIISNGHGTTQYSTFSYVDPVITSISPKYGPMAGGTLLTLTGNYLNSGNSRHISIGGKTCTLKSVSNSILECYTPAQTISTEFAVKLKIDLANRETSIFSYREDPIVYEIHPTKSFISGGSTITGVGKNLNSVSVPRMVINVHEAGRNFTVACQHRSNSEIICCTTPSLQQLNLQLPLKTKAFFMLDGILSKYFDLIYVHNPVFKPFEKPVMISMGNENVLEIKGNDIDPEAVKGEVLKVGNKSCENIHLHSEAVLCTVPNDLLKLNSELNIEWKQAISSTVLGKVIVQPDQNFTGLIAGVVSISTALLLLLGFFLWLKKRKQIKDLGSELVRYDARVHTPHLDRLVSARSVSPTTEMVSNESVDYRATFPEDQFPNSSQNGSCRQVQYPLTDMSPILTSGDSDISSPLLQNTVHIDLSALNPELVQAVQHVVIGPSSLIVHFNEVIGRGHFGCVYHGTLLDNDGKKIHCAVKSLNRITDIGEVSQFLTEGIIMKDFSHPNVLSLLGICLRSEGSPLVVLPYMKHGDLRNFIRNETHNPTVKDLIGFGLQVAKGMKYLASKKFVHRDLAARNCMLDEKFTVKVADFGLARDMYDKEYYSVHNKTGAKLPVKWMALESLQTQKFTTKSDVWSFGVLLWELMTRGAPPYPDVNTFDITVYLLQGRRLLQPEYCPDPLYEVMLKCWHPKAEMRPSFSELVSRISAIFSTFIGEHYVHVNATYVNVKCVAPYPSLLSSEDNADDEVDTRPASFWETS

[8] = molecular target: T7, SIK (Homo sapiens, UniProt P57059); assay: CEREP protein kinase assay; type: biochemical
T7 construct: purchased CEREP Panlabs (Eurofins)
T7 sequence (P57059 whole entry): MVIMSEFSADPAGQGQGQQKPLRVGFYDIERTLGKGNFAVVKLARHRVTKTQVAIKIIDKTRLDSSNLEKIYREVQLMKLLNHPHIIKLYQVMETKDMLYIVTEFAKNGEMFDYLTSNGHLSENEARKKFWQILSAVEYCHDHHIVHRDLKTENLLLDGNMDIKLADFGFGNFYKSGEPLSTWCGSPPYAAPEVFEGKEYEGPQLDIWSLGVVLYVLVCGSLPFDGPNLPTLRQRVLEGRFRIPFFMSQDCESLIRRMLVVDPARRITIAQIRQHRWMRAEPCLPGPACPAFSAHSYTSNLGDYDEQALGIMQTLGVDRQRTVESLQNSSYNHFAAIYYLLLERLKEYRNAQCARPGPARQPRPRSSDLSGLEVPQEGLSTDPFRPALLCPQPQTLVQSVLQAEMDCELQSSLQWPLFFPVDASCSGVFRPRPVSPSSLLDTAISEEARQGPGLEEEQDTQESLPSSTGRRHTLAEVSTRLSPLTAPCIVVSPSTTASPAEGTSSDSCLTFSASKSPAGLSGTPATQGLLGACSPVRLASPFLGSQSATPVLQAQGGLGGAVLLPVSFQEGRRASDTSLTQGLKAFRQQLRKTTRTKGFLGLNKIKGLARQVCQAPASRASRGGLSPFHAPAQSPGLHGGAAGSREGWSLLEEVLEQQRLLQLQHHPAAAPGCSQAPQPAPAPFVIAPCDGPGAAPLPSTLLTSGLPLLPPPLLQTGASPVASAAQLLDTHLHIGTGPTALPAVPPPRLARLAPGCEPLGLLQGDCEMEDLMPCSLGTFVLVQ

[9] = molecular target: T8, TAK1 (Homo sapiens, UniProt O43318); assay: CEREP protein kinase assay; type: biochemical
T8 construct: purchased CEREP Panlabs (Eurofins)
T8 sequence (O43318 1-303 limits assumed): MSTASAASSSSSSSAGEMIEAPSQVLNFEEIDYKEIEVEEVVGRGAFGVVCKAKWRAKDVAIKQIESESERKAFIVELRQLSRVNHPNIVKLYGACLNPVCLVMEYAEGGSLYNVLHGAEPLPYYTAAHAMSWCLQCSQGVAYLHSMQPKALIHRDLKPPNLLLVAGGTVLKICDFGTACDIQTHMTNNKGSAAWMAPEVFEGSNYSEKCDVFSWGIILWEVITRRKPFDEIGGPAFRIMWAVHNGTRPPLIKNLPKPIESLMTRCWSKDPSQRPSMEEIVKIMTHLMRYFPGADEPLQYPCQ
T8 sequence (Q15750 437-504 partner limits assumed): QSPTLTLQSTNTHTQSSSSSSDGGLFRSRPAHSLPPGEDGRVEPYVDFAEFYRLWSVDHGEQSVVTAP

[10] = molecular target: T9, TYK2 (Homo sapiens, UniProt P29597); assay: CEREP protein kinase assay; type: biochemical
T9 construct: purchased CEREP Panlabs (Eurofins)
T9 sequence (P29597 whole entry): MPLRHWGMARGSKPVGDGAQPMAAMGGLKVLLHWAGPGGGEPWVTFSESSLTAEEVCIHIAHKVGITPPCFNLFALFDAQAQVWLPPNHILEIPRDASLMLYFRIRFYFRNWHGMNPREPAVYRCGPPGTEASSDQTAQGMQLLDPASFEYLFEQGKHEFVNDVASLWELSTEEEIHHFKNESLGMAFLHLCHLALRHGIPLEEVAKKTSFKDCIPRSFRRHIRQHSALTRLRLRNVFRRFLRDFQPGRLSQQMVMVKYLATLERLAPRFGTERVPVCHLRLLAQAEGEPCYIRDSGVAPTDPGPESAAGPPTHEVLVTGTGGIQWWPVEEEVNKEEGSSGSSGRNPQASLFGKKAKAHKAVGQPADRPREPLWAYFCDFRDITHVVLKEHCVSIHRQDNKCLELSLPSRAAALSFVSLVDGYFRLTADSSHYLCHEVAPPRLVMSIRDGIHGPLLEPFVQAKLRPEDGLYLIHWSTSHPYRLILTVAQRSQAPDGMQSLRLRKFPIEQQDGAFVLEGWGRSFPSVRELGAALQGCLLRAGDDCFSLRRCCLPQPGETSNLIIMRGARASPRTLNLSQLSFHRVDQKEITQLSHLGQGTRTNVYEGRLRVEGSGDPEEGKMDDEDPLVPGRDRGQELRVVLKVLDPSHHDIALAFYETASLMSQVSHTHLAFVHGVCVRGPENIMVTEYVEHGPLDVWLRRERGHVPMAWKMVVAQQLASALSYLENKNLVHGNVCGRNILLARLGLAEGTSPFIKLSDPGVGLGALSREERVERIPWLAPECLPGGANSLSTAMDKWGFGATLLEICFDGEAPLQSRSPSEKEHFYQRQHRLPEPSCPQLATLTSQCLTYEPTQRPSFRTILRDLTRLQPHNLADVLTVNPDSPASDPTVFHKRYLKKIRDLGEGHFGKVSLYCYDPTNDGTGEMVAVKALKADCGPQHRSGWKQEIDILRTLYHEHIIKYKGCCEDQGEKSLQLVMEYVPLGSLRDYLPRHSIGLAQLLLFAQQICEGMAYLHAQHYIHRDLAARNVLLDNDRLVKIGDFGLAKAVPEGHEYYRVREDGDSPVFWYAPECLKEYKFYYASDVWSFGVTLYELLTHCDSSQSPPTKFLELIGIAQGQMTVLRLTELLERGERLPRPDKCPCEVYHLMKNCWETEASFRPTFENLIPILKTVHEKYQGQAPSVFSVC

O=c1[nH]ccc2cc(F)c(NS(=O)(=O)c3ccc(N4CC[C@@H](O)C4)s3)cc12 [LSN3213128, N-(6-Fluoro-1-oxo-1,2-dihydroisoquinolin-7-yl)-5-[(3R)-3-hydroxypyrrolidin-1-yl]thiophene-2-sulfonamide]
anti-proliferative effect on supplementation with hypoxanthine ([1]; 32 μM hypoxanthine): completely abrogated
GI50 ([1]; Homo sapiens, RPMI media, Alamar Blue): 88 nM
inhibition at 0.2 µM ([2]; @ 0.2 uM): -32.5%
inhibition at 2 µM ([2]; @ 2 uM): -9.31%
inhibition at 20 µM ([2]; @ 20 uM): -3.2%
inhibition at 0.2 µM ([3]; @ 0.2 uM): -4.14%
inhibition at 2 µM ([3]; @ 2 uM): 4.5%
inhibition at 20 µM ([3]; @ 20 uM): 5.99%
inhibition at 0.2 µM ([4]; @ 0.2 uM): 3.96%
inhibition at 2 µM ([4]; @ 2 uM): 9.58%
inhibition at 20 µM ([4]; @ 20 uM): 19.4%
inhibition at 0.2 µM ([5]; @ 0.2 uM): -9.26%
inhibition at 2 µM ([5]; @ 2 uM): 4.29%
inhibition at 20 µM ([5]; @ 20 uM): 33.8%
inhibition at 0.2 µM ([6]; @ 0.2 uM): -0.761%
inhibition at 2 µM ([6]; @ 2 uM): 6.61%
inhibition at 20 µM ([6]; @ 20 uM): 60.3%
inhibition at 0.2 µM ([7]; @ 0.2 uM): -5.89%
inhibition at 2 µM ([7]; @ 2 uM): 8.99%
inhibition at 20 µM ([7]; @ 20 uM): 17.8%
inhibition at 0.2 µM ([8]; @ 0.2 uM): -1.42%
inhibition at 2 µM ([8]; @ 2 uM): 3.69%
inhibition at 20 µM ([8]; @ 20 uM): 3.12%
inhibition at 0.2 µM ([9]; @ 0.2 uM): -0.355%
inhibition at 2 µM ([9]; @ 2 uM): 4.6%
inhibition at 20 µM ([9]; @ 20 uM): 19.3%
inhibition at 0.2 µM ([10]; @ 0.2 uM): -6.85%
inhibition at 2 µM ([10]; @ 2 uM): -1.32%
inhibition at 20 µM ([10]; @ 20 uM): 35.1%
